How the values were obtained:
Assay in all cases: biochemical
Design in all cases: SelectScreen LanthaScreen kinase binding assay, per cent tracer displacement, mean of two points
Conditions in all cases: tracer displacement
CDK9/cyclin K = CDK9/cyclin K (Homo sapiens, UniProt P50750)
MKNK2 (MNK2) = MKNK2 (MNK2) (Homo sapiens, UniProt Q9HBH9)
RAF1 (cRAF) Y340D Y341D = RAF1 (cRAF) Y340D Y341D (Homo sapiens, UniProt P04049, Y340D/Y341D)
CDK2/cyclin O = CDK2/cyclin O (Homo sapiens, UniProt P24941)
ADCK3 = molecular target: T1, ADCK3 (Homo sapiens, UniProt Q8NI60)
T1 construct: gene COQ8A

CDK16 (PCTK1)/cyclin Y = CDK16 (PCTK1)/cyclin Y (Homo sapiens, UniProt Q00536)
MAP2K1 (MEK1) = MAP2K1 (MEK1) (Homo sapiens, UniProt Q02750)
BMPR2 = molecular target: T2, BMPR2 (Homo sapiens, UniProt Q13873)
T2 sequence (Q13873 1-1038): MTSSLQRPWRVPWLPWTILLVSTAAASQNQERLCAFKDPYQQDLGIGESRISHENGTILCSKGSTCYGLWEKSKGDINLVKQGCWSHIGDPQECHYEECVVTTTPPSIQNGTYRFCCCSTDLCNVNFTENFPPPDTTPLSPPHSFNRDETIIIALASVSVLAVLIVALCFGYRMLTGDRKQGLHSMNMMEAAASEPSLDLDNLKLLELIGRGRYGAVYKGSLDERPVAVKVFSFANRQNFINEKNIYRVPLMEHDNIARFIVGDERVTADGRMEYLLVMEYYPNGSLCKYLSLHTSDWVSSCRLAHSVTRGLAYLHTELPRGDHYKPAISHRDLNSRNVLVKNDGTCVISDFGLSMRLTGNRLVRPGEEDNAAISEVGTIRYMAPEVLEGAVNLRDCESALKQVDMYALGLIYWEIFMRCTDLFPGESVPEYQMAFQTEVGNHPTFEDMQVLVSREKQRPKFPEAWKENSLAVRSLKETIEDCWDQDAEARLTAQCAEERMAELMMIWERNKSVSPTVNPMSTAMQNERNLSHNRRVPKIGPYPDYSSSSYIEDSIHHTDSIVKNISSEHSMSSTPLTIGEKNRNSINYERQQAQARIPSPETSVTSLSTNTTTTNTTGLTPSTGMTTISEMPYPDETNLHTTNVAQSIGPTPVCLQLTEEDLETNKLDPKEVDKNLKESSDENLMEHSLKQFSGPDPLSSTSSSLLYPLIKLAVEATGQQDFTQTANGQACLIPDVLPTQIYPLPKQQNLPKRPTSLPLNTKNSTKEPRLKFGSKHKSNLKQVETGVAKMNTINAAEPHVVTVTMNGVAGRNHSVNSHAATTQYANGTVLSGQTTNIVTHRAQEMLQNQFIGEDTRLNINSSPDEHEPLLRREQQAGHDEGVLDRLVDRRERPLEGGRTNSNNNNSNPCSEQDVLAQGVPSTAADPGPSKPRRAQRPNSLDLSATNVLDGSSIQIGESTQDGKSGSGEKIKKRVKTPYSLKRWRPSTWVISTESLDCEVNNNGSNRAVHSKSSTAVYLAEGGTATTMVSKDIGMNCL

T1 sequence (Q8NI60 whole entry): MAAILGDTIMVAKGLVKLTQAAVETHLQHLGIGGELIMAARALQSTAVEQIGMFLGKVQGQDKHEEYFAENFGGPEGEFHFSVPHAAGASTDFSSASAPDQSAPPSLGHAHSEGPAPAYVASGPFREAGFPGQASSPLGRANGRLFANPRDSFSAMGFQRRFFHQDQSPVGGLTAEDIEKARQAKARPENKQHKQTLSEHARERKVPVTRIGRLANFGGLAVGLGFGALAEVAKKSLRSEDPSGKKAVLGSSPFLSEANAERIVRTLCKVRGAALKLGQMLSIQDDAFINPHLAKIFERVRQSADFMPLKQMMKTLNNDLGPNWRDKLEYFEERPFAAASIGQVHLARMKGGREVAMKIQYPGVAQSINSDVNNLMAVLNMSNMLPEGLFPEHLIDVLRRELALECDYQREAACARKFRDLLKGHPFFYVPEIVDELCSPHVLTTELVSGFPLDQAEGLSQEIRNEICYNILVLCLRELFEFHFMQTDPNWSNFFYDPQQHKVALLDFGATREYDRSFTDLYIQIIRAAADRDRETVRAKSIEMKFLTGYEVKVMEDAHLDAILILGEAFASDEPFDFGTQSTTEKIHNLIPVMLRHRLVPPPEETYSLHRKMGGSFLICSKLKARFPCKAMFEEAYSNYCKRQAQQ
Chain of MKNK2 (MNK2) (Q9HBH9 whole entry): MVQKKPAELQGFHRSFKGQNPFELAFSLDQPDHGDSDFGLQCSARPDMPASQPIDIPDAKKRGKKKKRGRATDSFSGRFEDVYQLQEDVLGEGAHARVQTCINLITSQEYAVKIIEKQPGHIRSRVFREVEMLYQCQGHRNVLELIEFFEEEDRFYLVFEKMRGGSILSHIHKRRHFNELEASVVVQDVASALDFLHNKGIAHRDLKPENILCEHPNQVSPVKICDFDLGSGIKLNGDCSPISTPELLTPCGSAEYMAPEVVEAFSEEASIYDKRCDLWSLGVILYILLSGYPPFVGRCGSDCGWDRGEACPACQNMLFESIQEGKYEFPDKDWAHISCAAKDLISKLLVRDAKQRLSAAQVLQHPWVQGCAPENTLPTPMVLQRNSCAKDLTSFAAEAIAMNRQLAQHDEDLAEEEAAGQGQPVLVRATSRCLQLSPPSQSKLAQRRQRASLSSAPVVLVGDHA
Chain of CDK16 (PCTK1)/cyclin Y (Q00536 whole entry): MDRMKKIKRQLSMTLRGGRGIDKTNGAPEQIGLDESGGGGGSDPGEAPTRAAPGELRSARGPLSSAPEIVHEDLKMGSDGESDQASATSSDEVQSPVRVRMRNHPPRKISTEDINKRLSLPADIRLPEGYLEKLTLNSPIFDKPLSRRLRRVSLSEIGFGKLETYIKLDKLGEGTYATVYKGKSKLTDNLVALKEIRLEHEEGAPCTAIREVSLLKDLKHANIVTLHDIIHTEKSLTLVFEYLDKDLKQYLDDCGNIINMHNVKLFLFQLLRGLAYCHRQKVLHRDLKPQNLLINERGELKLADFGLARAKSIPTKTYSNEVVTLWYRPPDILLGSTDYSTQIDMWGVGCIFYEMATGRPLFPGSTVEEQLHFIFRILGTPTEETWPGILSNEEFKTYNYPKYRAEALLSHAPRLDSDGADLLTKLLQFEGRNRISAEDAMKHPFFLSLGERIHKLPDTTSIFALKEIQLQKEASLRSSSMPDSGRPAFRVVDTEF
Chain of CDK16 (PCTK1)/cyclin Y (Q8ND76 whole entry partner): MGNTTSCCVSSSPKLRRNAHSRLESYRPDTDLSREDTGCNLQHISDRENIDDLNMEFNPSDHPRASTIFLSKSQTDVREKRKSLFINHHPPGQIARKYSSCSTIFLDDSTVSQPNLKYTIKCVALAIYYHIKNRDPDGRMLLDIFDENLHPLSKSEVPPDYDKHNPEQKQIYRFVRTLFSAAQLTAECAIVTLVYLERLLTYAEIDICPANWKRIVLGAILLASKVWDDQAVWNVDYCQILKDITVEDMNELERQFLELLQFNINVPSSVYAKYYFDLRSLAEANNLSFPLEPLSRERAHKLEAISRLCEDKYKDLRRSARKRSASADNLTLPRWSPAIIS
Chain of CDK9/cyclin K (P50750 whole entry): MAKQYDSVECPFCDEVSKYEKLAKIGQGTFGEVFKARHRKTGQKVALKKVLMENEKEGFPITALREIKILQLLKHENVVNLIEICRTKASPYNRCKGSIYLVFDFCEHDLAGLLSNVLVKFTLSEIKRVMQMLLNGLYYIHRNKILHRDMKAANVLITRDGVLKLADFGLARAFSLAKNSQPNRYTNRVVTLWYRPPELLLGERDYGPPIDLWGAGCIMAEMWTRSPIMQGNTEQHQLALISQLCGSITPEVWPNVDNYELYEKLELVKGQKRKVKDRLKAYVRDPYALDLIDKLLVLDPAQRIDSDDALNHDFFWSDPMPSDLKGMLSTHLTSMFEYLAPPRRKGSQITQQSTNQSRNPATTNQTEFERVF
Chain of CDK9/cyclin K (O75909 whole entry partner): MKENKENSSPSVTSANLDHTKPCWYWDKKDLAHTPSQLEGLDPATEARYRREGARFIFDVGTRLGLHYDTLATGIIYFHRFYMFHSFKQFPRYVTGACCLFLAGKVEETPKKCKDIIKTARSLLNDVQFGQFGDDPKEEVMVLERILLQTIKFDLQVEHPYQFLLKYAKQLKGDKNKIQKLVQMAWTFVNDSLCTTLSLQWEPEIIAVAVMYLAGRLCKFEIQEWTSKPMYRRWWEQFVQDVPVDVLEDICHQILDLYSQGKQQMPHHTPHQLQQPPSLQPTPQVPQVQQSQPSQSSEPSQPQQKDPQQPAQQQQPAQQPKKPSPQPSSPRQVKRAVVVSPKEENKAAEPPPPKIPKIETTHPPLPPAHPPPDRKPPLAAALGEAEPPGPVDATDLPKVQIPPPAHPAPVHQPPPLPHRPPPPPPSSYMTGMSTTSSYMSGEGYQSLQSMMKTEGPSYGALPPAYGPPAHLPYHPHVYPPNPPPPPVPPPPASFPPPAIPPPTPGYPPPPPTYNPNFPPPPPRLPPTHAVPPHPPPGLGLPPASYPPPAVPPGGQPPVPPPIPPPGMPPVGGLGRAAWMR
Chain of RAF1 (cRAF) Y340D Y341D (P04049 whole entry Y340D/Y341D): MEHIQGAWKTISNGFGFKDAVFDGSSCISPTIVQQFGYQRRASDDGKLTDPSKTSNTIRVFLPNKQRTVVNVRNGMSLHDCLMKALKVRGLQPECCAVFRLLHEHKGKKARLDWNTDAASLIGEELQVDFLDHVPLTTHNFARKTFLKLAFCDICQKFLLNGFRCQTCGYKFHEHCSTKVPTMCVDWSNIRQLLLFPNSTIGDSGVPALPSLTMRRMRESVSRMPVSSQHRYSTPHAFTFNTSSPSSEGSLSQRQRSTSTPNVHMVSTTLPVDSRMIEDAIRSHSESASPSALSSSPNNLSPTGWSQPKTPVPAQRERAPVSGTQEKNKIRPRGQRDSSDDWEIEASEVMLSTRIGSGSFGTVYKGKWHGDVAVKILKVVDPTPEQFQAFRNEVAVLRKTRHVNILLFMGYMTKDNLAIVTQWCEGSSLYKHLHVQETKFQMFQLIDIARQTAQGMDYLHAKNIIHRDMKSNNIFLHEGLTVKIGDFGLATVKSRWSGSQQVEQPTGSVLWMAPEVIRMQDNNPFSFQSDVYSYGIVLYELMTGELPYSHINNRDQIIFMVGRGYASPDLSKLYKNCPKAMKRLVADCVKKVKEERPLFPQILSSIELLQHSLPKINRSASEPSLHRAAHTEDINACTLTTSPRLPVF
Chain of MAP2K1 (MEK1) (Q02750 whole entry): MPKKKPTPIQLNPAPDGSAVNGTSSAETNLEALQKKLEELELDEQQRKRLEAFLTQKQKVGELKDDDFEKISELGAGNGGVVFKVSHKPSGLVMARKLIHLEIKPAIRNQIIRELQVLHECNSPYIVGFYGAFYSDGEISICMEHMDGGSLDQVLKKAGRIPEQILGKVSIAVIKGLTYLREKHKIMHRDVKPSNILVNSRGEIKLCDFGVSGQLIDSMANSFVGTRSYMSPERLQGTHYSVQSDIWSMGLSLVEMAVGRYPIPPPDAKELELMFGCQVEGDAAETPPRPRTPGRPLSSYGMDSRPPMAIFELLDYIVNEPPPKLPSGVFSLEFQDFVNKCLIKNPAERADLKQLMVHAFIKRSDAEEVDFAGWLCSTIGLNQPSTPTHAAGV

inhibition at 1 µM (CDK9/cyclin K) [%] | inhibition at 3 µM (CDK9/cyclin K) [%] | inhibition at 10 µM (CDK9/cyclin K) [%] | inhibition at 1 µM (MKNK2 (MNK2)) [%] | inhibition at 3 µM (MKNK2 (MNK2)) [%] | inhibition at 10 µM (MKNK2 (MNK2)) [%] | inhibition at 1 µM (RAF1 (cRAF) Y340D Y341D) [%] | inhibition at 3 µM (RAF1 (cRAF) Y340D Y341D) [%] | inhibition at 10 µM (RAF1 (cRAF) Y340D Y341D) [%] | inhibition at 1 µM (CDK2/cyclin O) [%] | inhibition at 3 µM (CDK2/cyclin O) [%] | inhibition at 10 µM (CDK2/cyclin O) [%] | inhibition at 1 µM (ADCK3) [%] | inhibition at 3 µM (ADCK3) [%] | inhibition at 10 µM (ADCK3) [%] | inhibition at 1 µM (CDK16 (PCTK1)/cyclin Y) [%] | inhibition at 3 µM (CDK16 (PCTK1)/cyclin Y) [%] | inhibition at 10 µM (CDK16 (PCTK1)/cyclin Y) [%] | inhibition at 1 µM (MAP2K1 (MEK1)) [%] | inhibition at 3 µM (MAP2K1 (MEK1)) [%] | other results | SMILES
-2.66 | -5.46 | -1.18 | -2.8 | -3.55 | -10.1 | -5.58 | -2.49 | -0.882 | 17.6 | -4.45 | 7.96 | -3.76 | 8.79 | 13.7 | -6.54 | -14.5 | -1.48 | -0.281 | 2.33 | inhibition at 10 µM (MAP2K1 (MEK1)): -0.179%; inhibition at 1 µM (BMPR2): -1.13%; inhibition at 3 µM (BMPR2): 0.974%; inhibition at 10 µM (BMPR2): 3.06% | O=C(CSc1nc2nccnc2c(=O)n1CCc1ccccc1)Nc1nccs1 [compound 1, PITCOIN1]
0.179 | -3.08 | -7.54 | -4.48 | 1.13 | -10.9 | -1.02 | 3.96 | 3.33 | 18.1 | 11.6 | 2.75 | 8.78 | 18.3 | 9.67 | 3.53 | -5.28 | -6.76 | -0.643 | 0.136 | inhibition at 10 µM (MAP2K1 (MEK1)): -2.2%; inhibition at 1 µM (BMPR2): 11.6%; inhibition at 3 µM (BMPR2): 13.1%; inhibition at 10 µM (BMPR2): 17.3% | CS(=O)(=O)Nc1cccc(-c2csc(NC(=O)CSc3nc4nccnc4c(=O)n3CCc3ccccc3)n2)c1 [compound 3, PITCOIN3]
